Values quoted from earlier work as cited in patent US20200197494A1, “PEPTIDE COMPOSITIONS AND METHODS OF USE” (Dauntless Pharmaceuticals, priority 2017, published 2020).

Conditions: subcutaneous administration; background statement

C[C@@H](O)[C@@H]1NC(=O)[C@H](CCCCN)NC(=O)[C@@H](Cc2c[nH]c3ccccc23)NC(=O)[C@H](Cc2ccccc2)NC(=O)[C@@H](NC(=O)[C@H](N)Cc2ccccc2)CSSC[C@@H](C(=O)N[C@H](CO)[C@@H](C)O)NC1=O [octreotide, D-phenylalanyl-L-cysteinyl-L-phenylalanyl-D-tryptophyl-L-lysyl-L-threonyl-N-[2-hydroxy-1-(hydroxymethyl)propyl]-L-Cysteinamide, cyclic (2→7)-disulfide]
peptide present in the blood stream (bioavailability): ~100%
